Data reported in patent publication EP0942911B1, “BENZOPYRANOPYRROLE AND BENZOPYRANOPYRIDINE ALPHA-1 ADRENERGIC COMPOUNDS” (Abbott Laboratories, priority 1996, dated 1998).
Structures can show the parent of a compound that is named as a salt. Where two headings read alike, the source gives them in different places. One block for each compound: values may come before it.

Key:
α-1b adrenoreceptor = target: T1, α-1b adrenoreceptor (Mesocricetus auratus, UniProt P18841); assay: biochemical; format: binding, hamster; conditions: read-out: Radioligand Binding (Ki, nM) 1b (Hamster)
T1 sequence (P18841 1-515): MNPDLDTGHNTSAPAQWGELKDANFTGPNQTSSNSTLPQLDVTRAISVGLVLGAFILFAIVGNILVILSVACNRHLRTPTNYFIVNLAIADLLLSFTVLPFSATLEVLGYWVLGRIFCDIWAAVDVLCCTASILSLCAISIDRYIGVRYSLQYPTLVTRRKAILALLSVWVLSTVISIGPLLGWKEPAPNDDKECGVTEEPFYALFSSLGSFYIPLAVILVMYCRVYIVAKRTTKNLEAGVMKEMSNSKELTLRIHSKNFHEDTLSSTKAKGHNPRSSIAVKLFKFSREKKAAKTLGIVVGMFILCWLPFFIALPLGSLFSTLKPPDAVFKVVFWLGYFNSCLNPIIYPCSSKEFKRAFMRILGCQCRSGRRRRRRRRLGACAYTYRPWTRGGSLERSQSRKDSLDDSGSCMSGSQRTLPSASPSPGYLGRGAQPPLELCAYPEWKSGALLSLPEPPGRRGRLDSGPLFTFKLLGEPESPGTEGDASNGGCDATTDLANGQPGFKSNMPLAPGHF
In short: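 Radioactivity counted by liquid scintillation after radioligand binding to membranes. Receptors: cloned α-1a, α-1b, α-1d stably expressed in LTK mouse fibroblasts (G418 selection, SV40 early promoter); rat submaxillary gland membranes for pharmacologically defined α-1A.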

α-1A adrenoreceptor = target: T2, α-1A adrenoreceptor (Rattus norvegicus, UniProt P43140); assay: cell-based; conditions: phenylephrine-induced contraction, Schild plot; for Kb: read-out: In Vitro Characterization (pA2) Rat Vas (converted)
T2 sequence (P43140 1-466): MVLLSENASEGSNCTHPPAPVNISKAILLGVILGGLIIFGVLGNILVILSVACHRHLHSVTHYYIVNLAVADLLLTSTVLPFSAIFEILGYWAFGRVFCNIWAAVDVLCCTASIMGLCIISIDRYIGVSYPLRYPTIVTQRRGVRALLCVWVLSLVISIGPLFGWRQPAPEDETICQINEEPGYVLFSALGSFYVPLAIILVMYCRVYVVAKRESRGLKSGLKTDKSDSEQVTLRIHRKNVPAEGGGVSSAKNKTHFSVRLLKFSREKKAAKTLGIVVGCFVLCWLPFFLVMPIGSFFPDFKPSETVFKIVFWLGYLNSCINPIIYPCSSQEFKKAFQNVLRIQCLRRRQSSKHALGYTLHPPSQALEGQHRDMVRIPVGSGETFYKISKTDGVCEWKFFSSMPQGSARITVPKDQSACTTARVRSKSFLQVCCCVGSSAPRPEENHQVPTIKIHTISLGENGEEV
Text: Functional assays indicative of pharmacologically defined α-1 adrenoreceptors were used to further characterize compounds. Inhibition of phenylephrine (PE)-induced contraction of canine prostate smooth muscle can be correlated with α-1A adrenoreceptor activation. […] For each of these models, agonist dose response curves were repeated against increasing concentrations of test agent to derive a Schild plot [log ([…]) against log (molarity of test agent)] to determine the pA2.

[1] = [3H]-prazosin radioligand, cloned receptor in LTK cell membranes

Ki (α-1b adrenoreceptor; [1]): 10.5 nM | In Vitro Characterization (pA2) Rat Vas (α-1A adrenoreceptor): 9.02
Compound: 3-[4-((3aR,9bR)-cis-9-Methoxy-1,2,3,3a,4,9b-hexahydro-[1]-benzopyrano[3,4-c]pyrrol-2-yl]butyl]-7-methoxy-pyrido[3',2':4,5]thieno[3,2-d]pyrimidine-2,4(1H,3H)-dione hydrochloride [Example 33]

Compound: COc1ccc2c(c1)OC[C@H]1CN(CCn3c(=O)[nH]c4c(sc5ccccc54)c3=O)C[C@@H]21.Cl (racemic) [Example 63, 3-[2-((±)-cis-7-Methoxy-1,2,3,3a,4,9b-hexahydro-[1]-benzopyrano[3,4-c]pyrrol-2-yl)ethyl]-[1]benzthieno[3,2-d]pyrimidine-2,4(1H,3H)-dione hydrochloride]
Ki (α-1b adrenoreceptor): 92.2 nM

Compound: COc1ccc2c(c1)OC[C@H]1CN(CCCn3c(=O)[nH]c4c(sc5ccccc54)c3=O)C[C@@H]21.Cl (racemic) [Example 64, 3-[3-((±)-cis-7-Methoxy-1,2,3,3a,4,9b-hexahydro-[1]-benzopyrano[3,4-c]pyrrol-2-yl)propyl]-[1]benzthieno[3,2-d]pyrimidine-2,4(1H,3H)-dione hydrochloride]
Ki (α-1b adrenoreceptor): 9.3 nM

Compound: COc1cccc2c1[C@@H]1CN(CCn3c(=O)[nH]c4c(sc5ccccc54)c3=O)C[C@@H]1CO2.Cl (racemic) [Example 65, 3-[2-((±)-cis-9-Methoxy-1,2,3,3a,4,9b-hexahydro-[1]-benzopyrano[3,4-c]pyrrol-2-yl)ethyl]-[1]benzthieno[3,2-d]pyrimidine-2,4(1H,3H)-dione hydrochloride]
Ki (α-1b adrenoreceptor): 20.7 nM

Compound: COc1cccc2c1[C@@H]1CN(CCCn3c(=O)[nH]c4c(sc5ccccc54)c3=O)C[C@@H]1CO2.Cl (racemic) [Example 66, 3-[3-((±)-cis-9-Methoxy-1,2,3,3a,4,9b-hexahydro-[1]-benzopyrano[3,4-c]pyrrol-2-yl)propyl]-[1]benzthieno[3,2-d]pyrimidine-2,4(1H,3H)-dione hydrochloride]
Ki (α-1b adrenoreceptor): 533 nM

Compound: COc1cccc2c1OC[C@H]1CN(CCn3c(=O)[nH]c4c(sc5ccccc54)c3=O)C[C@@H]21.Cl (racemic) [Example 67, 3-[2-((±)-cis-6-Methoxy-1,2,3,3a,4,9b-hexahydro-[1]-benzopyrano[3,4-c]pyrrol-2-yl)ethyl]-[1]benzthieno[3,2-d]pyrimidine-2,4(1H,3H)-dione hydrochloride]
Ki (α-1b adrenoreceptor): 248 nM

Compound: COc1cccc2c1OC[C@H]1CN(CCCn3c(=O)[nH]c4c(sc5ccccc54)c3=O)C[C@@H]21.Cl (racemic) [Example 68, 3-[3-((±)-cis-6-Methoxy-1,2,3,3a,4,9b-hexahydro-[1]-benzopyrano[3,4-c]pyrrol-2-yl)propyl]-[1]benzthieno[3,2-d]pyrimidine-2,4(1H,3H)-dione hydrochloride]
Ki (α-1b adrenoreceptor): 23.6 nM

Compound: Cl.O=c1[nH]c2c(sc3ccccc32)c(=O)n1CCN1C[C@@H]2COc3ccccc3[C@@H]2C1 (racemic) [Example 69, 3-[2-((±)-cis-1,2,3,3a,4,9b-hexahydro-[1]-benzopyrano[3,4-c]pyrrol-2-yl)ethyl]-[1]benzthieno[3,2-d]pyrimidine-2,4(1H,3H)-dione hydrochloride]
Ki (α-1b adrenoreceptor): 4.35 nM

Compound: O=c1[nH]c2c(sc3cccnc32)c(=O)n1CCCCN1C[C@@H]2COc3ccccc3[C@@H]2C1 (racemic) [Example 70, 3-[4-((±)-cis-1,2,3,3a,4,9b-hexahydro-[1]-benzopyrano[3,4-c]pyrrol-2-yl)butyl]-pyrido[2',3':4,5]thieno[3,2-d]pyrimidine-2,4(1H,3H)-dione dihydrochloride]
Ki (α-1b adrenoreceptor): 0.724 nM | Kb (α-1A adrenoreceptor): 6.31 nM

Compound: COc1cccc2c1[C@H]1CN(CCCCn3c(=O)[nH]c4c(sc5nccnc54)c3=O)C[C@@H]1CO2.Cl.Cl (racemic) [Example 74, 3-[4-((±)-trans-9-Methoxy-1,2,3,3a,4,9b-hexahydro-[1]-benzopyrano[3,4-c]pyrrol-2-yl)butyl]-pyrazino[2',3':4,5]thieno[3,2-d]pyrimidine-2,4(1H,3H)-dione dihydrochloride]
Ki (α-1b adrenoreceptor): 14.3 nM | Kb (α-1A adrenoreceptor): 0.794 nM

Compound: COc1cc2[nH]c(=O)n(CCCCN3C[C@@H]4COc5ccccc5[C@@H]4C3)c(=O)c2cc1OC (racemic) [Example 81, 3-[4-((±1-cis-1,2,3,3a,4,9b-hexahydro-[1]-benzopyrano[3,4-c]pyrrol-2-yl)butyl]-6,7-dimethoxy-quinazoline-2,4(1H,3H)-dione hydrochloride]
Ki (α-1b adrenoreceptor; [1]): 0.192 nM

Compound: COc1cccc2c1[C@@H]1CCN(CCCCn3c(=O)[nH]c4c(sc5ncccc54)c3=O)C[C@H]1CO2 (racemic) [Example 85, 3-[4-((±)-trans-10-Methoxy-1,3,4,4a,5,10b-hexahydro-2H-[1]-benzopyrano[3,4-c]pyrido-3-yl)butyl]-pyrido[3',2':4,5]thieno[3,2-d]pyrimidine-2,4(1H,3H)-dione dihydrochloride]
Ki (α-1b adrenoreceptor; [1]): 1.89 nM

Ki (α-1b adrenoreceptor; [1]): 1.49 nM
Compound: COc1cnc2sc3c(=O)n(CCCCN4CC5COc6cccc(OC)c6[C@@H]5C4)c(=O)[nH]c3c2n1.Cl (stereo in doubt) [Example 43, 3-[4-((3aS,9bR)-trans-9-Methoxy-1,2,3,3a,4,9b-hexahydro-[1]-benzopyrano[3,4-c]pyrrol-2-yl)butyl]-8-methoxy-pyrazino[2',3':4,5]thieno[3,2-d]pyrimidine-2,4(1H,3H)-dione hydrochloride]

Compound: COc1cccc2c1[C@@H]1CN(CCCCn3c(=O)[nH]c4c(sc5cccnc54)c3=O)C[C@@H]1CO2 [Example 1, 3-[4-((3aR,9bR)-cis-9-Methoxy-1,2,3,3a,4,9b-hexahydro-[1]-benzopyrano[3,4-c]pyrrol-2-yl)butyl]-pyrido[2',3':4,5]thieno[3,2-d]pyrimidine-2,4(1H,3H)-dione hydrochloride]
Ki (α-1b adrenoreceptor; [1]): 1.14 nM

Compound: COc1cccc2c1[C@H]1CN(CCCCn3c(=O)[nH]c4c(sc5cccnc54)c3=O)C[C@H]1CO2 [Example 2, 3-[4-((3aS,9bS)-cis-9-Methoxy-1,2,3,3a,4,9b-hexahydro-[1]-benzopyrano[3,4-c]pyrrol-2-yl)butyl]-pyrido[2',3':4,5]thieno[3,2-d]pyrimidine-2,4(1H,3H)-dione hydrochloride]
Ki (α-1b adrenoreceptor; [1]): 9.23 nM

Compound: COc1cccc2c1[C@@H]1CN(CCCCn3c(=O)[nH]c4c(sc5cccnc54)c3=O)C[C@H]1CO2 [Example 3, 3-[4-((3aS,9bR)-trans-9-Methoxy-1,2,3,3a,4,9b-hexahydro-[1]-benzopyrano[3,4-c]pyrrol-2-yl)butyl]-pyrido[2',3':4,5]thieno[3,2-d]pyrimidine-2,4(1H,3H)-dione hydrochloride]
Ki (α-1b adrenoreceptor; [1]): 0.286 nM

Compound: COc1cccc2c1[C@@H]1CN(CCCCn3c(=O)[nH]c4c(sc5ccnc(Cl)c54)c3=O)C[C@@H]1CO2 [Example 48, 3-[4-((3aR,9bR)-cis-9-Methoxy-1,2,3,3a,4,9b-hexahydro-[1]-benzopyrano[3,4-c]pyrrol-2-yl)butyl]-9-chloro-pyrido[3',4';4,5]thieno[3,2-d]pyrimidine-2,4(1H,3H)-dione hydrochloride]
Ki (α-1b adrenoreceptor; [1]): 5.75 nM

Compound: COc1cccc2c1[C@@H]1CN(CCCCn3c(=O)[nH]c4c(sc5ccnc(OC)c54)c3=O)C[C@H]1CO2 [Example 49, 3-[4-((3aS,9bR)-trans-9-Methoxy-1,2,3,3a,4,9b-hexahydro-[1]-benzopyrano[3,4-c]pyrrol-2-yl)butyl]-9-methoxy-pyrido[3',4':4,5]thieno[3,2-d]pyrimidine-2,4(1H,3H)-dione fumarate]
Ki (α-1b adrenoreceptor; [1]): 0.129 nM

Compound: COc1cccc2c1[C@@H]1CN(CCCCn3c(=O)[nH]c4c(sc5c(Cl)nccc54)c3=O)C[C@H]1CO2 [Example 54, 3-[4-((3aS,9bR)-trans-9-Methoxy-1,2,3,3a,4,9b-hexahydro-[1]-benzopyrano[3,4-c]pyrrol-2-yl)butyl]-6-chloro-pyrido[4',3':4,5]thieno[3,2-d]pyrimidine-2,4(1H,3H)-dione]
Ki (α-1b adrenoreceptor; [1]): 1 nM

Compound: COc1cccc2c1[C@@H]1CCN(CCCCn3c(=O)[nH]c4c(sc5cccnc54)c3=O)C[C@H]1CO2 [Example 95, 3-[4-((4aS,10bR)-trans-10-Methoxy-1,3,4,4a,5,10b-hexahydro-2H-[1]-benzopyrano[3,4-c]pyrido-3-yl)butyl]-pyrido[2',3':4,5]thieno[3,2-d]pyrimidine-2.4(1H,3H)-dione dihydrochloride]
Ki (α-1b adrenoreceptor; [1]): 21.6 nM
